Laboratory results from the SangsterLogP compilation.

Assay: method code SF-AS/HPLC, from DOI: 10.1039/a908863f

logP	Compound
2.5	C=CC(=O)OCC(C)(C)COC(=O)C=C
6.1	C=CC(=O)OC(C)COc1ccc(C(C)(C)c2ccc(OCC(C)OC(=O)C=C)cc2)cc1 (stereo not drawn)
3.08	C=CC(=O)OCCCCCCOC(=O)C=C
0.65	C=CC(=O)OCCOCCOCCOC(=O)C=C
0.47	C=CC(=O)OCCOCCOCCOCCOC(=O)C=C
7.1	C=CC(=O)OCCCCCCCCCCCCCCCCCC
1.94	C=CC(=O)Oc1ccccc1
-0.3	C=CC(=O)OCCOCCO
0.79	C=CC(=O)OCCOCCOC(=O)C=C
5.46	C=CC(=O)OCCCCCCCCCC

Compound	logP
C=CC(=O)OCC(COC(=O)C=C)(COC(=O)C=C)COC(=O)C=C	2.23
C=CC(=O)OCC(CC)(COC(=O)C=C)COC(=O)C=C	2.75
C=CC(=O)OCCCOC(=O)C=C	0.87
